Data from US20180179210A1, “Inhibitors of the TEC Kinase Enzyme Family” (Pharmascience Inc., priority 2015, published 2018).

How the values were obtained:
human BTK kinase (hBTK) = biological target: T1, human BTK kinase (hBTK) (Homo sapiens, UniProt Q06187); assay: BTK kinase inhibition assay (Kinase Profiler radiometric protein kinase assay, Eurofins); assay type: biochemical; details: radiometric [γ-33P-ATP] assay, 40 minutes at room temperature, 250 μM substrate
T1 construct: purchased Eurofins Pharma Discovery Services UK Limited (contract assay, Kinase Profiler)
Description: In vitro potency of selected compound was defined against human BTK kinase (hBTK) using Kinase Profiler radiometric protein kinase assays performed at Eurofins Pharma Discovery Services UK Limited.
hBTK kinase is diluted in buffer and all compounds were prepared to 50× final assay concentration in 100% DMSO. This working stock of the compound was added to the assay well as the first component in the reaction, followed by the remaining components as detailed in the assay protocol listed above. The reaction was initiated by the addition of the MgATP mix. The kinase reaction was performed at room temperature for 40 minutes in presence of 250 μM substrate, 10 mM MgAcetate, [γ-33P-ATP] (specific activity approx. 500 cpm/pmol, concentration as required) and variable test article concentrations. The ATP concentrations in the assays were with 15 μM of the apparent. The reaction was stopped by the addition of 3% phosphoric acid solution. 10 μL of the reaction is then spotted onto a P30 filtermat and washed three times for 5 minutes in 75 mM phosphoric acid and once in methanol prior to drying and scintillation counting. In addition positive control wells contain all components of the reaction, except the compound of interest; however, DMSO (at a final concentration of 2%) were included in these wells to control for solvent effects as well as blank wells contain all components of the reaction, with a reference inhibitor replacing the compound of interest. This abolishes kinase activity and establishes the base-line (0% kinase activity remaining).

Splenocytes = assay: Splenic cell proliferation assay (anti-IgM stimulated); assay type: cell-based; details: Splenocyte; CD1 mouse splenocytes, 1 h pre-treatment, 2.5 ug/ml anti-IgM F(ab')2 for 72 h, Cell Titer-Glo; read-out: EC50 (inhibition of splenic cell proliferation)
Description: Proliferation of splenocytes in response to anti-IgM can be blocked by inhibition of Btk.
Splenocytes were obtained from 6 week old male CD1 mice (Charles River Laboratories Inc.). Mouse spleens were manually disrupted in PBS and filtered using a 70 um cell strainer followed by ammonium chloride red blood cell lysis. Cells were washed, resuspended in Splenocyte Medium (HyClone RPMI supplemented with 10% heat-inactivated FBS, 0.5× non-essential amino acids, 10 mM HEPES, 50 uM beta mercaptoethanol) and incubated at 37° C., 5% CO2 for 2 h to remove adherent cells. Suspension cells were seeded in 96 well plates at 50,000 cells per well and incubated at 37° C., 5% CO2 for 1 h. Splenocytes were pre-treated in triplicate with 10,000 nM curves of Formula 1 compounds for 1 h, followed by stimulation of cell proliferation with 2.5 ug/ml anti-IgM F(ab′)2 (Jackson ImmunoResearch) for 72 h. Cell proliferation was measured by Cell Titer-Glo Luminescent Assay (Promega). EC50 values (50% proliferation in the presence of compound as compared to vehicle treated controls) were calculated from dose response compound curves using GraphPad Prism Software EC50 values are reported in Table 3: […]

[1] = tested on: TMD-8 human activated B cell diffuse large B cell lymphoma cells; assay: TMD-8 survival assay; assay type: cell-based; details: TMD8, TMD-8 cells, 72 h treatment, Cell Titer-Glo
Description: BTK inhibitors affect the survival of B-cell lymphomas. TMD-8 human activated B cell diffuse large B cell lymphoma cells were seeded in 96-well plates at a density of 20,000 cells/well in HyClone RPMI supplemented with 10% FBS (Fisher)/1% Penicillin/Streptomycin (HyClone) and incubated at 37° C., 5% CO2. Cells were treated in triplicate with 1,000 nM or 100 nM curves of compounds for 72 h. Cell survival was measured by Cell Titer-Glo Luminescent Assay (Promega). EC50 values (50% proliferation in the presence of compound as compared to vehicle treated controls) were calculated from dose response compound curves using GraphPad Prism Software.

BTK = BTK (Homo sapiens, UniProt Q06187); assay: BTK enzyme off-rate determination (dilution kinetic experiments); assay type: biochemical; details: 10-30 nM compound pre-incubated with 7 nM enzyme, 1000 uM ATP, 1 h, diluted 250×, monitored 8 h
Description: 10-30 nM compound was pre-incubated with 7 nM enzyme in the presence of 1000 uM ATP for 1 h. The [I]-[E] complex was diluted 250× into an assay buffer with 1000 uM ATP and 2uM substrate peptide. Enzyme activity in the diluted samples was monitored in real time assay over period of 8 h. The progress curves were fit with time dependent equation to determine apparent Kobs and residence time of the compound. […] Consistent with covalent inhibition of BTK.

T1 sequence (Q06187 whole entry): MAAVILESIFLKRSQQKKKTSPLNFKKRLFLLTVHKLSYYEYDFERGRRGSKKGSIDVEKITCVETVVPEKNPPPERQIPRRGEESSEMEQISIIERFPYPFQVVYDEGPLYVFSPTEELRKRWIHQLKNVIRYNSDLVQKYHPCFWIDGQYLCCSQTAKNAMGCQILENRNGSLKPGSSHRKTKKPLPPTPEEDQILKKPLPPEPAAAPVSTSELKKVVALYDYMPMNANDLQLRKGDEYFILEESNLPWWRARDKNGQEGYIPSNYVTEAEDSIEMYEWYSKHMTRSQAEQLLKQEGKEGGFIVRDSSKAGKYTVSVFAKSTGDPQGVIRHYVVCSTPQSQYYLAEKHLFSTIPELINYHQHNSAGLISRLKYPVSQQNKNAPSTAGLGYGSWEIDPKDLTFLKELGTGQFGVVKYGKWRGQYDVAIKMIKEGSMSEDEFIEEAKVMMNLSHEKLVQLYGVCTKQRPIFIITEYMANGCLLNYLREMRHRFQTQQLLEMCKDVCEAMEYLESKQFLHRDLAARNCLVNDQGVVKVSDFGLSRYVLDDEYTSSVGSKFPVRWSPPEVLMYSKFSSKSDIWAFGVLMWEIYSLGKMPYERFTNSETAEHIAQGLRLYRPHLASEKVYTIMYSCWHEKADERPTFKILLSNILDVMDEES
Sequence of BTK (Q06187 whole entry): as above

Row | SMILES | IC50 (human BTK kinase (hBTK)) [nM] | EC50 (Splenocytes) [nM] | EC50 [1] [nM] | Residence time half life (1/Kobs) (BTK) [h] | residence time (BTK; read-out: Residence time half life (1/Kobs)) [min]
1 | CC#CC(=O)N1CC[C@@H](n2nc(-c3ccc(Oc4cc(F)cc(OCc5cnc(C)nc5)c4)cc3)c3c(N)ncnc32)C1 [Compound 17] | 19 | 6.9 | 14.5 |  | 
2 | C=C(F)C(=O)N1CC[C@@H](n2nc(-c3ccc(Oc4cc(F)cc(OCc5cnc(C)nc5)c4)cc3)c3c(N)ncnc32)C1 [Compound 18] | 14 | 5.8 | 14.4 |  | 
3 | C=CS(=O)(=O)N1CC[C@@H](n2nc(-c3ccc(Oc4cc(F)cc(OCc5cnc(C)nc5)c4)cc3)c3c(N)ncnc32)C1 [Compound 19] | 7 | 13.4 | 53.3 |  | 
4 | C=C(F)C(=O)N1CCC[C@@H](n2nc(-c3ccc(Oc4cc(F)cc(OCc5cnc(C)nc5)c4)cc3)c3c(N)ncnc32)C1 [Compound 20] | 6 | 2 | 8.6 |  | 
5 | C=CS(=O)(=O)N1CCC[C@@H](n2nc(-c3ccc(Oc4cc(F)cc(OCc5cnc(C)nc5)c4)cc3)c3c(N)ncnc32)C1 [Compound 21] | 13 | 32.9 | 64.5 |  | 
6 | C=CC(=O)N1CC[C@@H](n2nc(-c3ccc(Oc4cc(F)cc(OCc5cnc(C)nc5)c4)cc3)c3c(N)ncnc32)C1 [Compound 22] | 6 | 2.7 | 13.4 |  | 
7 | C=CC(=O)N1CC(Cn2nc(-c3ccc(Oc4cc(F)cc(OCc5cnc(C)nc5)c4)cc3)c3c(N)ncnc32)C1 [Compound 23] | 9 | 4.9 | 13.9 |  | 
8 | CC#CC(=O)N1CC(Cn2nc(-c3ccc(Oc4cc(F)cc(OCc5cnc(C)nc5)c4)cc3)c3c(N)ncnc32)C1 [Compound 24] | 26 | 10.8 | 20.6 |  | 
9 | C=CC(=O)N1CCC(n2nc(-c3ccc(Oc4cc(F)cc(OCc5cnc(C)nc5)c4)cc3)c3c(N)ncnc32)CC1 [Compound 25] | 17 | 4.3 | 19.8 |  | 
10 | CC#CC(=O)N1CCC(n2nc(-c3ccc(Oc4cc(F)cc(OCc5cnc(C)nc5)c4)cc3)c3c(N)ncnc32)CC1 [Compound 26] | 24 | 4.6 | 18.1 |  | 
11 | C=CC(=O)N[C@H]1C[C@@H](n2nc(-c3ccc(Oc4cc(F)cc(OCc5cnc(C)nc5)c4)cc3)c3c(N)ncnc32)C1 [Compound 27] | 8 | 0.8 | 4.7 | >10 | > 600
12 | CC#CC(=O)N[C@H]1C[C@@H](n2nc(-c3ccc(Oc4cc(F)cc(OCc5cnc(C)nc5)c4)cc3)c3c(N)ncnc32)C1 [Compound 28] | 13 | 1.1 | 8.4 |  | 
13 | C=CC(=O)N[C@H]1CC[C@@H](n2nc(-c3ccc(Oc4cc(F)cc(OCc5cnc(C)nc5)c4)cc3)c3c(N)ncnc32)CC1 [Compound 29] | 8 | 1 | 6.6 |  | 
14 | CC#CC(=O)N[C@H]1CC[C@@H](n2nc(-c3ccc(Oc4cc(F)cc(OCc5cnc(C)nc5)c4)cc3)c3c(N)ncnc32)CC1 [Compound 30] | 9 | 1 | 5.1 |  | 
15 | C=CC(=O)N(C)[C@H]1C[C@@H](n2nc(-c3ccc(Oc4cc(F)cc(OCc5cnc(C)nc5)c4)cc3)c3c(N)ncnc32)C1 [Compound 31] | 10 | 1.4 | 8.9 |  | 
16 | CC#CC(=O)N(C)[C@H]1C[C@@H](n2nc(-c3ccc(Oc4cc(F)cc(OCc5cnc(C)nc5)c4)cc3)c3c(N)ncnc32)C1 [Compound 32] | 8 | 1.5 | 8.5 |  | 
